“And” between values parts separate entries of the source, which are not always exact repeats. Identical values can stand only once.
Assays:
[1] = test system: conscious, telemetry-instrumented rats; experiment: Telemetry-instrumented conscious rats, repeat-dosing hemodynamics; type: in vivo; conditions: conscious rat; for 24-hr mean change in heart rate: vehicle −2±1; for mean arterial pressure increase relative to baseline, 24-hr mean over the treatment period: vehicle 3.7±0.5
Experimental: Mean arterial pressure was assessed in conscious, freely moving male Sprague Dawley rats (n = 6–8/group; Charles River) instrumented with telemetry transmitters (DSI-Ponemah) and housed in metabolism cages as previously described, [26]. Tested compounds were solubilized in a 0.5% Methylcellulose/0.015% Tween 80 vehicle that was also dosed alone (p.o./QD, 5 mL/kg) as a control in the study. FTY720 was administered p.o. at 0.3, 1.0, 3.0, 10.0 mg/kg p.o. as a single dose or p.o./QD at 0.5, 1.5, and 5.0 mg/kg in a chronic study. […] Mean arterial pressure and heart rate are shown as 1-hr and/or 24-hr mean values±SEM as described in the results. Blood samples in satellite rats were withdrawn at various timepoints as described in the results for analysis of plasma concentrations of the parent compound and, in the case of FTY720, also the phosphorylated metabolite, (S)-FTY720-P. Statistical analysis for the single-dose acute studies was based on one-way ANOVA to compare the treatment groups vs. vehicle for each time period after dosing (0–24 hrs, 24–48 hrs, and 48–72 hrs); statistical significance (p<0.05) was detected by Dunnett’s post-hoc test to compare treatment with vehicle controls. The statistical analysis in the chronic studies were based on one-way ANOVA with repeated measures to compare the treatment arms; statistical significance (p<0.05) was detected by Dunnett’s post-hoc test to compare treatment with vehicle controls.

[2] = Plasma concentrations in repeat-dosing study, satellite rats; type: in vivo, rat; conditions: for concentration at 0 h / concentration at 4 h / concentration at 8 h / concentration at 24 h: male, Sprague Dawley, rat, plasma, po, mean±SEM; for Plasma concentration at Tmax / Terminal plasma concentration at Tmax: satellite rats; for Plasma concentration at Tmax: day 1; for Terminal plasma concentration at Tmax: last day of study
Experimental: Mean arterial pressure was assessed in conscious, freely moving male Sprague Dawley rats (n = 6–8/group; Charles River) instrumented with telemetry transmitters (DSI-Ponemah) and housed in metabolism cages as previously described, [26]. Tested compounds were solubilized in a 0.5% Methylcellulose/0.015% Tween 80 vehicle that was also dosed alone (p.o./QD, 5 mL/kg) as a control in the study. FTY720 was administered p.o. at 0.3, 1.0, 3.0, 10.0 mg/kg p.o. as a single dose or p.o./QD at 0.5, 1.5, and 5.0 mg/kg in a chronic study. BAF312 was administered p.o/QD at 0.3, 3.0, and 30 mg/kg as a single dose and in a chronic study. Mean arterial pressure and heart rate are shown as 1-hr and/or 24-hr mean values±SEM as described in the results. Blood samples in satellite rats were withdrawn at various timepoints as described in the results for analysis of plasma concentrations of the parent compound and, in the case of FTY720, also the phosphorylated metabolite, (S)-FTY720-P. Statistical analysis for the single-dose acute studies was based on one-way ANOVA to compare the treatment groups vs. vehicle for each time period after dosing (0–24 hrs, 24–48 hrs, and 48–72 hrs); statistical significance (p<0.05) was detected by Dunnett’s post-hoc test to compare treatment with vehicle controls. The statistical analysis in the chronic studies were based on one-way ANOVA with repeated measures to compare the treatment arms; statistical significance (p<0.05) was detected by Dunnett’s post-hoc test to compare treatment with vehicle controls.

[3] = Plasma concentrations during escalating i.v. infusion in anesthetized rats; type: in vivo; conditions: male, Sprague Dawley, plasma, iv, anesthetized rat, FTY720 i.v.
Experimental: The cardiovascular effects of FTY720 and BAF312 were tested in anesthetized rats (180–200 g). In brief, male Sprague Dawley rats (Charles River) were anesthetized with Inactin (110 mg/kg i.p.) and a tracheotomy performed. The femoral artery and veins were catheterized for measurement of mean arterial pressure and heart rate, collection of blood samples at 20-min intervals (0.2 mL/sample), and for compound infusion/hydration as previously described, [24]; blood samples were also withdrawn in vehicle-treated control rats. FTY720, infused as a hydrochloride salt (0.1, 0.3, 1.0 mg/kg/20-min free base equivalent solubilized in a 100% PEG-400 vehicle), or BAF312 (0.5, 1.5, 5.0 mg/kg/20-min solubilized in a 100% PEG-400 vehicle) were administered via three escalating 20-min infusions (0.011 mL/min) followed by a 1-hr post-treatment period. A blood sample was withdrawn at 20, 40, 60, and 120-minutes for analysis of plasma concentrations of the parent compound, and in the case of FTY720, also the phosphorylated metabolite, (S)-FTY720-P. Statistical significance (p<0.05) was based on a t-test comparing treatment change from baseline (baseline was defined as the period from −30 to 0 minutes) vs. vehicle controls change from baseline at each timepoint without adjustment for multiple comparisons. In a separate group of anesthetized rats in which left ventricular (LV) contractility was also recorded with a Millar pressure transducer introduced into the left ventricle, BAF312 was infused in the same dosing regimen as the studies described above (0.5, 1.5, 5.0 mg/kg/20-min solubilized in a 100% PEG-400 vehicle) and effects on LV dP/dtmax were recorded.

[4] = Heart tissue concentrations at the end of the repeat-dosing study; type: in vivo; conditions: rat
Experimental: In the repeat-dosing study with FTY720 (0.5, 1.5, and 5.0 mg/kg/d), plasma concentrations were also determined ( Table 3 ).

[5] = test system: mouse and rat experimental autoimmune encephalitis, EAE; set-up: method as in PMID 23436932; conditions: correlated with reduced circulating lymphocytes and monocytes; cited from earlier work

## CCCCCCCCc1ccc(CCC(N)(CO)CO)cc1 [FTY720]
[1]; FTY720 0.5 mg/kg p.o./QD repeat dosing
  24-hr mean change in heart rate: 11±2 beats/min
[1]; FTY720 0.5 mg/kg/d p.o./QD, 0.5 mg/kg/day
  mean arterial pressure increase relative to baseline, 24-hr mean over the treatment period: 8.4 mmHg and 8.4±0.4 mmHg
[1]; FTY720 1.5 mg/kg p.o./QD repeat dosing
  24-hr mean change in heart rate: 1±1 beats/min
[1]; FTY720 1.5 mg/kg/d p.o./QD, 1.5 mg/kg/day
  mean arterial pressure increase relative to baseline, 24-hr mean over the treatment period: 12.8 mmHg and 12.8±0.4 mmHg
[1]; FTY720 5.0 mg/kg p.o./QD repeat dosing
  24-hr mean change in heart rate: 1±3 beats/min
[1]; FTY720 5.0 mg/kg/d p.o./QD, 5 mg/kg/day
  mean arterial pressure increase relative to baseline, 24-hr mean over the treatment period: 16.2 mmHg and 16.2±0.8 mmHg
[1]; FTY720 0.5, 1.5, 5.0 mg/kg/d p.o.
  bradycardia during repeat dosing: no acute or sustained bradycardia
[2]; 0.5 mg/kg/day, FTY720 0.5 mg/kg/d p.o., Terminal (last day)
  concentration at 0 h: 18 ± 2 nM
[2]; 0.5 mg/kg/day, FTY720 0.5 mg/kg/d p.o., Terminal (last day), 4 hr post-dose
  concentration at 4 h: 24 ± 3 nM
[2]; 0.5 mg/kg/day, FTY720 0.5 mg/kg/d p.o., Terminal (last day), 8 hr post-dose
  concentration at 8 h: 63 ± 37 nM
[2]; 0.5 mg/kg/day, FTY720 0.5 mg/kg/d p.o., Terminal (last day), 24 hr post-dose
  concentration at 24 h: 40 ± 27 nM
[2]; 0.5 mg/kg/day, FTY720 0.5 mg/kg/d p.o., Day 1, 4 hr post-dose
  concentration at 4 h: 9 ± 1 nM
[2]; 0.5 mg/kg/day, FTY720 0.5 mg/kg/d p.o., Day 1, 8 hr post-dose
  concentration at 8 h: 13 ± 2 nM
[2]; 0.5 mg/kg/day, FTY720 0.5 mg/kg/d p.o., Day 1, 24 hr post-dose
  concentration at 24 h: 8 ± 1 nM
[2]; 1.5 mg/kg/day, FTY720 1.5 mg/kg/d p.o., Terminal (last day)
  concentration at 0 h: 58 ± 7 nM
[2]; 1.5 mg/kg/day, FTY720 1.5 mg/kg/d p.o., Terminal (last day), 4 hr post-dose
  concentration at 4 h: 60 ± 6 nM
[2]; 1.5 mg/kg/day, FTY720 1.5 mg/kg/d p.o., Terminal (last day), 8 hr post-dose
  concentration at 8 h: 81 ± 4 nM
[2]; 1.5 mg/kg/day, FTY720 1.5 mg/kg/d p.o., Terminal (last day), 24 hr post-dose
  concentration at 24 h: 44 ± 5 nM
[2]; 1.5 mg/kg/day, FTY720 1.5 mg/kg/d p.o., Day 1, 4 hr post-dose
  concentration at 4 h: 45 ± 4 nM
[2]; 1.5 mg/kg/day, FTY720 1.5 mg/kg/d p.o., Day 1, 8 hr post-dose
  concentration at 8 h: 53 ± 9 nM
[2]; 1.5 mg/kg/day, FTY720 1.5 mg/kg/d p.o., Day 1, 24 hr post-dose
  concentration at 24 h: 34 ± 4 nM
[2]; 5 mg/kg/day, FTY720 5.0 mg/kg/d p.o., Terminal (last day)
  concentration at 0 h: 207 ± 27 nM
[2]; 5 mg/kg/day, FTY720 5.0 mg/kg/d p.o., Terminal (last day), 4 hr post-dose
  concentration at 4 h: 229 ± 21 nM
[2]; 5 mg/kg/day, FTY720 5.0 mg/kg/d p.o., Terminal (last day), 8 hr post-dose
  concentration at 8 h: 176 ± 37 nM
[2]; 5 mg/kg/day, FTY720 5.0 mg/kg/d p.o., Terminal (last day), 24 hr post-dose
  concentration at 24 h: 134 ± 21 nM
[2]; 5 mg/kg/day, FTY720 5.0 mg/kg/d p.o., Day 1, 4 hr post-dose
  concentration at 4 h: 98 ± 14 nM
[2]; 5 mg/kg/day, FTY720 5.0 mg/kg/d p.o., Day 1, 8 hr post-dose
  concentration at 8 h: 102 ± 4 nM
[2]; 5 mg/kg/day, FTY720 5.0 mg/kg/d p.o., Day 1, 24 hr post-dose
  concentration at 24 h: 17 ± 40 nM
[2]; FTY720 0.5 mg/kg/d p.o.
  Plasma concentration at Tmax: 13 ± 2 nM
  Terminal plasma concentration at Tmax: 63 ± 37 nM
[2]; FTY720 1.5 mg/kg/d p.o.
  Plasma concentration at Tmax: 53 ± 9 nM
  Terminal plasma concentration at Tmax: 81 ± 4 nM
[2]; FTY720 5.0 mg/kg/d p.o.
  Plasma concentration at Tmax: 120 ± 17 nM
  Terminal plasma concentration at Tmax: 229 ± 21 nM
[3]; end of 0.1 mg/kg/20 min infusion
  concentration at 20 min: 54 ± 9 nM
[3]; end of 0.3 mg/kg/20 min infusion
  concentration at 40 min: 198 ± 13 nM
[3]; end of 1.0 mg/kg/20 min infusion
  concentration at 60 min: 375 ± 46 nM
[3]; end of 60-min post-treatment period
  concentration at 120 min: 121 ± 5 nM
[4]; FTY720 0.5 mg/kg/d p.o.
  mean tissue concentration in heart: 379 ng/g
[4]; FTY720 1.5 mg/kg/d p.o.
  mean tissue concentration in heart: 490 ng/g
[4]; FTY720 5.0 mg/kg/d p.o.
  mean tissue concentration in heart: 1848 ng/g
[5]
  efficacious dose in EAE: 0.3 mg/kg

From publication PMC3532212 (PLoS ONE, 2012)
